Experiments:
p-CHK1 (Ser345) = experiment: AlphaLISA SureFire Ultra p-CHK1 (Ser345) cellular assay in HT29 cells; type: cell-based
Summary of the method: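 HT29 cells treated with compounds over a 10-point, 3-fold dilution series for 16 h at 37° C., then lysed; p-CHK1 (Ser345) in lysates measured by AlphaLISA SureFire Ultra (acceptor and donor steps 1 h each at room temperature). IC50 from dose-response curve fits.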

[1] = target: T1, Full-length human Chk1 protein (Homo sapiens, UniProt O14757); experiment: Kinase HTRF biochemical assay (HTRF KinEASE), Chk1 enzyme activity; conditions: full-length human Chk1, ATP 1 mM, 60 minutes at room temperature
T1 construct: purchased Carna Biosciences, Inc. 02-117
T1 sequence (O14757 1-476): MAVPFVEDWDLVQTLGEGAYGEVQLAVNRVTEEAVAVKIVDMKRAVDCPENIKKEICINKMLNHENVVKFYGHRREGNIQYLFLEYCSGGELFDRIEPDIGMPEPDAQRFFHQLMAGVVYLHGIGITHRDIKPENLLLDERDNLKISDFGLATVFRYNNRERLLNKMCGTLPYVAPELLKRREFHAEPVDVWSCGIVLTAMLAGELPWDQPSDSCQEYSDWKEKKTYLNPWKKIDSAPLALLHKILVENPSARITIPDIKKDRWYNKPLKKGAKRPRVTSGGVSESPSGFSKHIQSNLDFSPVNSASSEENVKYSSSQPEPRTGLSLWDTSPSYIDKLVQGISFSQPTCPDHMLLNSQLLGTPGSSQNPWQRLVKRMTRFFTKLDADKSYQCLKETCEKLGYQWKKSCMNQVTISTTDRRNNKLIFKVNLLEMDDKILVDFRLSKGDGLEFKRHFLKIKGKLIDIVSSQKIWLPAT
Summary of the method: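 Full-length human Chk1 (0.012 ng/μL) in buffer with 5 mM MgCl2 and 1 mM DTT, preincubated with compound 10 min at room temperature; reaction with 120 nM biotinylated STK substrate 1 and 1 mM ATP for 60 min at room temperature. HTRF detection via cryptate antibody/streptavidin-XL665; IC50 from 10-point duplicate curves.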

[2] = Homo sapiens, HT-29, 16 h at 37° C.

CN[C@H]1C[C@H](Oc2ccccc2-c2cc(Nc3cnc(C#N)cn3)n[nH]2)C1 [Example 1-38, 5-((5-(2-((1r,3r)-3-(methylamino)cyclobutoxy)phenyl)-1H-pyrazol-3-yl)amino)pyrazine-2-carbonitrile]
IC50 (p-CHK1 (Ser345); [2]): 100 to 500 nM | IC50 [1]: 10 to 100 nM

N#Cc1cnc(Nc2cc(-c3c(O[C@@H]4CC[C@@H](N)C4)ccc(Cl)c3F)[nH]n2)cn1 [Example 3-29, 5-((5-(6-(((1R,3R)-3-aminocyclopentyl)oxy)-3-chloro-2-fluorophenyl)-1H-pyrazol-3-yl)amino)pyrazine-2-carbonitrile]
IC50 (p-CHK1 (Ser345); [2]): 100 to 500 nM | IC50 [1]: ≤ 10 nM

N#Cc1cnc(Nc2cc(-c3c(F)cccc3O[C@@H]3CCCC[C@H](N)C3)[nH]n2)cn1 [Example 3-35, 5-((5-(2-(((1R,3S)-3-aminocycloheptyl)oxy)-6-fluorophenyl)-1H-pyrazol-3-yl)amino)pyrazine-2-carbonitrile]
IC50 (p-CHK1 (Ser345); [2]): ≤ 50 nM | IC50 [1]: ≤ 10 nM

COc1cccc(O[C@@H]2CC[C@@H](N)C2)c1-c1cc(Nc2cnc(C#N)cn2)n[nH]1 [Example 1-8, 5-((5-(2-(((1R,3R)-3-aminocyclopentyl)oxy)-6-methoxyphenyl)-lH-pyrazol-3-yl)amino)pyrazine-2-carbonitrile]
IC50 (p-CHK1 (Ser345); [2]): ≤ 50 nM | IC50 [1]: ≤ 10 nM

N#Cc1cnc(Nc2cc(-c3ncccc3O[C@@H]3CC[C@@H](N)C3)[nH]n2)cn1 [Example 1-58, 5-((5-(3-(((1R,3R)-3-aminocyclopentyl)oxy)pyridin-2-yl)-1H-pyrazol-3-yl)amino)pyrazine-2-carbonitrile]
IC50 (p-CHK1 (Ser345); [2]): ≤ 50 nM | IC50 [1]: ≤ 10 nM

Cc1cc(F)c(-c2cc(Nc3cnc(C#N)cn3)n[nH]2)c(O[C@@H]2CC[C@H](N)C2)c1 [Example 5-2, 5-((5-(2-(((1R,3S)-3-aminocyclopentyl)oxy)-6-fluoro-4-methylphenyl)-1H-pyrazol-3-yl)amino)pyrazine-2-carbonitrile]
IC50 (p-CHK1 (Ser345); [2]): 100 to 500 nM | IC50 [1]: 10 to 100 nM

COc1cccc(O[C@@H]2CC[C@@H](N(C)C)C2)c1-c1cc(Nc2cnc(C#N)cn2)n[nH]1 [Example 1-48, 5-((5-(2-(((1R,3R)-3-(dimethylamino)cyclopentyl)oxy)-6-methoxyphenyl)-1H-pyrazol-3-yl)amino)pyrazine-2-carbonitrile]
IC50 (p-CHK1 (Ser345); [2]): 50 to 100 nM | IC50 [1]: ≤ 10 nM

N#Cc1cnc(Nc2cc(-c3c(OCC4CC4)cccc3O[C@H]3C[C@H](N)C3)[nH]n2)cn1 [Example 1-32, 5-((5-(2-((1r,3r)-3-aminocyclobutoxy)-6-(cyclopropylmethoxy)phenyl)-1H-pyrazol-3-yl)amino)pyrazine-2-carbonitrile]
IC50 (p-CHK1 (Ser345); [2]): 500 to 1000 nM | IC50 [1]: 10 to 100 nM

CCOc1cccc(O[C@@H]2CC[C@H](N)C2)c1-c1cc(Nc2cnc(C#N)cn2)n[nH]1 [Example 1-23, 5-((5-(2-(((1R,3S)-3-aminocyclopentyl)oxy)-6-ethoxyphenyl)-1H-pyrazol-3-yl)amino)pyazine-2-carbonitrile]
IC50 (p-CHK1 (Ser345); [2]): 100 to 500 nM | IC50 [1]: 10 to 100 nM

COc1cccc(O[C@H]2CC3(C[C@@H](N)C3)C2)c1-c1cc(Nc2cnc(C#N)cn2)n[nH]1 (stereo partly drawn) [Example 3-11, 5-((5-(2-((6-aminospiro[3.3]heptan-2-yl)oxy)-6-methoxyphenyl)-1H-pyrazol-3-yl)amino)pyrazine-2-carbonitrile]
IC50 (p-CHK1 (Ser345); 16 h at 37° C.): ≤ 50 nM | IC50 [1]: ≤ 10 nM

COc1cc(Cl)cc(O[C@H]2CC[C@H](N)CC2)c1-c1cc(Nc2cnc(C#N)cn2)n[nH]1 [Example 1-21, 5-((5-(2-(((1r,4r)-4-aminocyclohexyl)oxy)-4-chloro-6-methoxyphenyl)-1H-pyrazol-3-yl)amino)pyrazine-2-carbonitrile]
IC50 (p-CHK1 (Ser345); [2]): 50 to 100 nM | IC50 [1]: ≤ 10 nM

N#Cc1cnc(Nc2cc(-c3ccccc3O[C@H]3CC[C@@H](N)C3)[nH]n2)cn1 [Example 2-1, 5-((5-(2-(((1S,3R)-3-aminocyclopentyl)oxy)phenyl)-1H-pyrazol-3-yl)amino)pyrazine-2-carbonitrile]
IC50 (p-CHK1 (Ser345); [2]): > 1000 nM | IC50 [1]: 500 to 1000 nM

COc1cccc(O[C@H]2CCCC[C@H](N)C2)c1-c1cc(Nc2cnc(C#N)cn2)n[nH]1 [Example 3-7, 5-((5-(2-(((1S,3S)-3-aminocycloheptyl)oxy)-6-methoxyphenyl)-1H-pyrazol-3-yl)amino)pyrazine-2-carbonitrile]
IC50 (p-CHK1 (Ser345); [2]): ≤ 50 nM | IC50 [1]: ≤ 10 nM

N#Cc1cnc(Nc2cc(-c3ccccc3O[C@@H]3CC[C@H](N)C3)[nH]n2)cn1 [Example 1-52, 5-((5-(2-(((1R,3S)-3-aminocyclopentyl)oxy)phenyl)-1H-pyrazol-3-yl)amino)pyrazine-2-carbonitrile]
IC50 (p-CHK1 (Ser345); [2]): 100 to 500 nM | IC50 [1]: 10 to 100 nM

CCOc1cccc(O[C@H]2CC[C@H](N)CC2)c1-c1cc(Nc2cnc(C#N)cn2)n[nH]1 [Example 1-17, 5-((5-(2-(((1r,4r)-4-aminocyclohexyl)oxy)-6-ethoxyphenyl)-1H-pyrazol-3-yl)amino)pyrazine-2-carbonitrile]
IC50 (p-CHK1 (Ser345); [2]): 500 to 1000 nM | IC50 [1]: 10 to 100 nM

CN[C@H]1CC[C@@H](Oc2cccc(OC)c2-c2cc(Nc3cnc(C#N)cn3)n[nH]2)C1 [Example 1-46, 5-((5-(2-methoxy-6-(((1R,3S)-3-(methylamino)cyclopentyl)oxy)phenyl)-1H-pyrazol-3-yl)amino)pyrazine-2-carbonitrile]
IC50 (p-CHK1 (Ser345); [2]): ≤ 50 nM | IC50 [1]: ≤ 10 nM

Cc1ccc(O[C@H]2CC[C@H](N)C2)c(-c2cc(Nc3cnc(C#N)cn3)n[nH]2)n1 [Example 3-44, 5-((5-(3-(((1S,3S)-3-aminocyclopentyl)oxy)-6-methylpyridin-2-yl)-1H-pyrazol-3-yl)amino)pyrazine-2-carbonitrile]
IC50 (p-CHK1 (Ser345); [2]): 500 to 1000 nM | IC50 [1]: 10 to 100 nM

CN[C@@H]1CC[C@@H](Oc2ccc(Cl)c(F)c2-c2cc(Nc3cnc(C#N)cn3)n[nH]2)C1 [Example 3-22, 5-((5-(3-chloro-2-fluoro-6-(((1R,3R)-3-(methylamino)cyclopentyl)oxy)phenyl)-1H-pyrazol-3-yl)amino)pyrazine-2-carbonitrile]
IC50 (p-CHK1 (Ser345); [2]): 100 to 500 nM | IC50 [1]: 10 to 100 nM

Cc1cc(-c2cc(Nc3cnc(C#N)cn3)n[nH]2)c(O[C@@H]2CC[C@@H](N)C2)cc1F [Example 3-27, 5-((5-(2-(((1R,3R)-3-aminocyclopentyl)oxy)-4-fluoro-5-methylphenyl)-1H-pyrazol-3-yl)amino)pyrazine-2-carbonitrile]
IC50 (p-CHK1 (Ser345); [2]): 50 to 100 nM | IC50 [1]: ≤ 10 nM

COc1cccc(O[C@H]2CC3(C[C@@H](N)C3)C2)c1-c1cc(Nc2cnc(C#N)cn2)n[nH]1 (stereo partly drawn) [Example 3-10, 5-((5-(2-((6-aminospiro[3.3]heptan-2-yl)oxy)-6-methoxyphenyl)-1H-pyrazol-3-yl)amino)pyrazine-2-carbonitrile]
IC50 (p-CHK1 (Ser345); [2]): ≤ 50 nM | IC50 [1]: ≤ 10 nM

[2H]C([2H])([2H])Oc1cccc(O[C@@H]2CC[C@H](N)C2)c1-c1cc(Nc2cnc(C#N)cn2)n[nH]1 [Example 3-15, 5-((5-(2-(((1R,3S)-3-aminocyclopentyl)oxy)-6-(methoxy-d3)phenyl)-1H-pyrazol-3-yl)amino)pyrazine-2-carbonitrile]
IC50 (p-CHK1 (Ser345); [2]): ≤ 50 nM | IC50 [1]: ≤ 10 nM

N#Cc1cnc(Nc2cc(-c3c(F)cccc3O[C@@H]3CCC[C@H]3N)[nH]n2)cn1 [Example 3-40, 5-((5-(2-(((1R,2R)-2-aminocyclopentyl)oxy)-6-fluorophenyl)-1H-pyrazol-3-yl)amino)pyrazine-2-carbonitrile]
IC50 (p-CHK1 (Ser345); [2]): ≤ 50 nM | IC50 [1]: ≤ 10 nM

N#Cc1cnc(Nc2cc(-c3c(F)cc(Cl)cc3O[C@@H]3CC[C@@H](N)C3)[nH]n2)cn1 [Example 3-30, 5-((5-(2-(((1R,3R)-3-aminocyclopentyl)oxy)-4-chloro-6-fluoropheny)-1H-pyrazol-3-yl)amino)pyrazine-2-carbonitrile]
IC50 (p-CHK1 (Ser345); [2]): 100 to 500 nM | IC50 [1]: ≤ 10 nM

Cc1cccc(-c2cc(Nc3cnc(C#N)cn3)n[nH]2)c1O[C@@H]1CC[C@H](N)C1 [Example 3-12, 5-((5-(2-(((1R,3S)-3-aminocyclopentyl)oxy)-3-methylphenyl)-1H-pyrazol-3-yl)amino)pyrazine-2-carbonitrile]
IC50 (p-CHK1 (Ser345); [2]): > 1000 nM | IC50 [1]: > 1000 nM

CN[C@@H]1CC[C@@H](Oc2cc(F)c(C)cc2-c2cc(Nc3cnc(C#N)cn3)n[nH]2)C1 [Example 3-21, 5-((5-(4-fluoro-5-methyl-2-(((1R,3R)-3-(methylamino)cyclopentyl)oxy)phenyl)-1H-pyrazol-3-yl)amino)pyrazine-2-carbonitrile]
IC50 (p-CHK1 (Ser345); [2]): 50 to 100 nM | IC50 [1]: ≤ 10 nM

COc1c(C)ccc(O[C@@H]2CC[C@H](N)C2)c1-c1cc(Nc2cnc(C#N)cn2)n[nH]1 [Example 4-1, 5-((5-(6-(((1R,3S)-3-aminocyclopentyl)oxy)-2-methoxy-3-methylphenyl)-1H-pyrazol-3-yl)amino)pyrazine-2-carbonitrile]
IC50 (p-CHK1 (Ser345); [2]): 500 to 1000 nM | IC50 [1]: 100 to 500 nM

CN(C)[C@@H]1CC[C@@H](Oc2cccc(F)c2-c2cc(Nc3cnc(C#N)cn3)n[nH]2)C1 [Example 5-4, 5-((5-(2-(((1R,3R)-3-(dimethylamino)cyclopentyl)oxy)-6-fluorophenyl)-1H-pyrazol-3-yl)amino)pyrazine-2-carbonitrile]
IC50 (p-CHK1 (Ser345); [2]): > 1000 nM | IC50 [1]: 100 to 500 nM
